Data on two compounds can be found in US4139531A, “1-Nitro-9-alkylaminoalkylaminoacridines and salts thereof” (Politechnika Gdanska, priority 1976, dated 1979).

Values joined by “and” are separate entries in the source; they are usually repeats but may differ in a detail not shown here. Equal values may be shown once.

Data set [1] concerns Crocker mice sarcoma (Sa-180). Description: Growth inhibition of the Crocker mice sarcoma (Sa-180). The following applies: dosage of 0.2 mg/kg, intraperitoneally, dihydrochloride. The class given is in vivo. On the procedure:
The growth inhibition of the Crocker mice sarcoma (Sa-180).
For this investigation, mice of about three months in age and a weight of about 25 g were used. These animals were inoculated with a section of the neoplasm (Sa-180) and were divided into groups: the first of control - 10 mice; and two to four groups of "under treatment" ones (seven mice each).
The compounds investigated were administered intraperitoneally in appropriate doses, after previous determination of the maximum tolerance dosage.
A criterion of the evaluation the anti-neoplastic activity of the compounds tested was accepted wherein the percent difference between mean weights of the nodules (tumours) of control mice and of those which received the preparations, taking into account the toxic effects.

Data set [2] is described as follows: Acute toxicity, LD50, mouse. The conditions noted are these: in vivo, observations over 72 hours. How it is done: (§1) The biological activity analysis was supported by detailed pharmacologic examinations. After observations made over 72 hours, it was determined that the LD50 -value for the preparation C-846 for mice and rats (in mg/kg), was as follows: […]
Data set [3] in a line: Acute toxicity, LD50, rat. The conditions noted are these: in vivo, observations over 72 hours. On the procedure:
as §1

A short description of data set [4]: Maximum tolerance dosage (MTD), mouse. The following applies: in vivo. On the procedure: (§2) Moreover, the maximum tolerance dosage (MTD) for mice and rats was determined (in mg/kg), as follows: […]
Data set [5] is described as follows: Maximum tolerance dosage (MTD), rat. The conditions noted are these: in vivo. How it is done:
as §2

For data set [6], the system named is rabbits and cats. Description: Arterial blood pressure, respiratory function, electrocardiogram and lethal dosage in rabbits and cats. The class given is in vivo.
Data set [7] has as its system isolated small intestine of guinea-pig. Description: Spasmolytic activity, isolated small intestine of guinea-pig. The following applies: concentration 5 × 10^-6.
Data set [8] concerns isolated small intestine of rat. As to the kind of experiment: Spasmolytic activity, isolated small intestine of rat. The following applies: concentration of 10^-5.
In data set [9] the test system is small intestine; muscular coat of the urinary bladder. Description: Spasmolytic activity in vivo, small intestine and urinary bladder of rabbit and cat. The following applies: intravenous, dosages of more than 5 mg/kg.
Data set [10] has as its system central nervous system. In kind it is in vivo, mice.
The subject of data set [11] is rats and rabbits. As to the kind of experiment: Prolonged (three-month) toxicity investigations on rats and rabbits. In kind it is in vivo. How it is done: Prolonged investigations were carried out on rats and rabbits during the whole three-month-exposition period of time, introducing dosages corresponding to 1/150, 1/100 and 1/50 of the LD50 -value. This last dosage was a dosage which was maximally tolerated during this period of time.

The subject of data set [12] is rats. Description: Reproduction and offspring development in rats. In kind it is in vivo.
Data set [13] is described as follows: Local irritating action. In kind it is in vivo.
Setting [14] is: large dosages, more than 8 mg/kg.
[15] abbreviates: rabbits and cats, intraperitoneal, dosages up to 10 mg/kg.

For orientation: LD50 means the dose expected to kill half of the subjects tested. A high value points to a less toxic substance. What is called MTD is the highest dose tested that stayed within the study's limit of toxicity. Higher therefore signals better tolerability.

Regarding `CCNCCCNc1c2ccccc2nc2cccc([N+](=O)[O-])c12.Cl.Cl` [Example C-845, 1-nitro-9-ethylaminopropylaminoacridine dihydrochloride], the “inhibition values of Crocker's sarcoma (Sa-180)” value in [1] was 48% and 49% and 57%.
In data set [2] (iv), `CC(C)NCCCNc1c2ccccc2nc2cccc([N+](=O)[O-])c12.Cl.Cl` [Example C-846, 1-nitro-9-isopropylaminopropylaminoacridine dihydrochloride] showed an LD50 at 72 h of 2.2 ± 0.1 mg/kg. Besides, the LD50 at 72 h in data set [2] (po) is 126 ± 24.7 mg/kg. In addition, the LD50 at 72 h in data set [3] (iv) came to 0.95 ± 0.1 mg/kg. The LD50 at 72 h in [3] (po) turned out to be 127 ± 17.8 mg/kg. This compound also had an MTD in data set [4] (iv) of 1.85 mg/kg. Moreover, the maximum tolerated dose (MTD) in [4] (po) came to 27.2 mg/kg. In [5] (iv), this compound showed an MTD of 0.63 mg/kg. Moreover, the MTD in [5] (po) came out at 75 mg/kg. Also, in data set [6] (intravenous injection, 2 mg/kg), the “effect on blood pressure” value was “insignificant and transient hypotony”; the effect on respiration result was “instinctive acceleration of deepened respiration”. Moreover, in [6] (setting [14]), the PQ segment entry was “prolongation of the PQ segment”; the QRS-Complex result is recorded as “dilation of the QRS-Complex”; the changes in electrocardiograms entry was “transient changes in electrocardiograms were noted, due to the disturbances of the atrio-ventricular and intra-ventricular conductivity”. In addition, the “effects of the lethal dosages” value in [6] (rabbits and cats, about 15 mg/kg, i.v.) was “permanent hypotony and respiration disturbances or even apnoea”. In [6] (rabbits and cats, i.v.), the lethal dosages is on record as ~15 mg/kg. In data set [6] (setting [15]), the “effect on the arterial blood pressure” value is on record as “did not have any effect” and the “effect on the respiratory function” value was “did not have any effect”. Also, in data set [7], the “muscular tension and spontaneous intestine peristalsis (spasmolytic activity)” value was “a decrease was noted in the muscular tension and an atrophy of spontaneous intestine peristalsis”. The “muscular tension and spontaneous intestine peristalsis (spasmolytic activity)” value in [8] is “a decrease was noted in the muscular tension and an atrophy of spontaneous intestine peristalsis”. For the same compound, in data set [9], the “spasmolytic activity regarding the small intestine and the muscular coat of the urinary bladder” value is on record as “such an activity”. Moreover, in data set [10] (mice, dosages up to 1/10 LD50), the “influence on spontaneous and forced motor activity” value was “did not influence in such dosages in essential manner”; the “influence on the action of hypnotic agents (luminal, chloral hydrate) and of convulsant agents (Cardiazol, strychnine)” value is given as “did not influence”. In addition, in [10] (mouse, in vivo), the “activity on the central nervous system” value is “did not demonstrate any evident and oriented activity”. Also, the blood coagulation time entry in data set [11] (in the third month) is reported as “a certain prolongation was noted”. Further, in data set [11] (in vivo), the “histology, germinal epithelium / testicles” value is “some degenerative lesions appeared in a range of the germinal epithelium, in the range of testicles”; the “histology, intestinal epithelium and glandular texture” value is “a desquamation (desfoliation) of the intestinal epithelium and an atrophy of the glandular texture”; the “histology, lymphatic system” value was “a decrease in the amount of the reproductive centers was noted, as well as a decrease in the amount of the small lymphocytes”; the “histology, other internal organs” value is “did not show any other microscopic changes”. In addition, in [11] (in vivo), the “histology, spermatogenesis” value is “some disturbances in spermatogenesis, a decrease in the amount of sperm cells”. For the same compound, in data set [11] (only after the highest dosages, prolonged time of exposition), the “activity of the acid phosphatase” value is reported as “increase in activity of the acid phosphatase was observed”. Moreover, in [11] (rats and rabbits, three months), the “hepatic functional tests (AlAt, AspAt, acid and alkaline phosphatases, thymol turbidity test)” value was “did not show an occurrence of any pathologic lesions”; the “influence on the peripheral blood or medular hematopoietic system” value is recorded as “could not be proved, that the preparation had influence”; the “renal tests (creatinine clearance, glomerular filterability)” value is “did not show any deviation from the norm”. Further, the “dosage maximally tolerated during three months” value in [11] (rats and rabbits, three-month exposition) is 1/50. Also, in data set [12], the “amount of infant animals in the brood” value is listed as “decreased”, the “capacity to conceive or induce conception / ability of females to become pregnant” value is on record as “did not inhibit”, the macroscopic malformations result is “no macroscopic malformations were observed” and the “ontogenetic development of infant animals” value is listed as “retarded”. Besides, the local irritating action result in [13] (concentrations of from 0.05 to 1.0%) is “exerted a local irritating action”. In [13] (phosphate buffer solution at pH 7 as solvent), the “local changes caused by the intravenous injection” value was “could be eliminated”.
